Laboratory results: US20250332265A1, “PSMA TARGETED CONJUGATE COMPOUNDS AND USES THEREOF” (priority 2021, published 2025)
Where “and” joins values, the source holds several entries; their conditions need not be identical. Identical values can stand only once. Numbered stars: 1 amine (or outer) side, 2 acyl side, 3 side chain; on linkers, the order of the positions; unused ones are H or OH. Bridge positions count the residues as written; N and C are the ends. Square brackets hold non-standard residues; d marks the D form. Peptide text beside a SMILES is read from it. I, II: the chains in the order shown. * marks the point of attachment. ξ: configuration not given here. X4 = CN1/C(=C/C=C/C=C/C2=[N+](CCCCCC(=O)*)c3ccc4ccccc4c3C2(C)C)C(C)(C)c2c1ccc1ccccc21; Hexanoyl(6-succinimido-3yl) = O=C1CC([*:1])C(=O)N1CCCCCC(=O)[*:2]; X5 = CC[C@H](C)[C@@H]([C@H](CC(=O)[*:2])OC)N(C)[*:1]; Dolaproine = CO[C@@H]([C@@H]1CCCN1)[C@@H](C)C(=O)O; PABC = O=C(OCc1ccc(N[*:1])cc1)[*:2]; ξγGlu = O=C(O)C(CCC(=O)[*:2])N[*:1]; X1 = C[C@@H](N*)[C@@H](O)c1ccccc1; X3 = O=C(C1CCC(CN[*:1])CC1)[*:2]; Cit = NC(=O)NCCC[C@H](N)C(=O)O; NMeV = CN[C@H](C(=O)O)C(C)C; ξE = NC(CCC(=O)O)C(=O)O; CO = O=C([*:1])[*:2]; ξK = NCCCCC(N)C(=O)O; Ahx = NCCCCCC(=O)O; ξC = NC(CS)C(=O)O

Experiments:
human liver cathepsin B = biological target: T1, human liver cathepsin B (Homo sapiens, UniProt P07858); test: Enzymatic cleavage by cathepsin B, Example 1; assay type: in vitro ADME; settings: 2 μM conjugate, 37° C., HPLC
T1 construct: purchased Anthens Research and Technology; host or cells: human liver (tissue-derived enzyme)
Procedure: PSMA-1-VcMMAE-Cy5.5 or PSMA-1-McMMAE-Cy5.5 was added to 500 μL of activated human liver cathepsin B (Anthens Research and Technology) solution to a final concentration of 2 μM and incubated at 37° C. At different time intervals, 40 µL of the solution was taken out into tubes loaded with 1 μL of 1 mM E64 protease inhibitor. The mixture was vortexed and then stored at −80° C. for future HPLC analysis to assess degradation of PSMA-1-VcMMAE-Cy5.5 or PSMA-1-McMMAE-Cy5.5. Studies were performed in triplicate.

PC3pip and PC3flu tumors = test: In vivo NIR imaging studies, Example 1; set-up: species or system mice; settings: 40 nmol/kg i.v., fluorescence imaging
Procedure: Under guidelines of the animal care and use committee at Case Western Reserve University (IACUC #150033) 6 to 8-week old male Balb/cathymic nude mice were implanted subcutaneously with 1×10^6 of PC3flu and PC3pip on the left and right dorsum respectively. Mice received 40 nmol/kg of PSMA-1-VcMMAE-Cy5.5 or PSMA-1-McMMAE-Cy5.5 in PBS via tail vein injection when tumors reached 10 mm in diameter. Fluorescence imaging was performed using the Maestro In Vivo Imaging system (Perkin-Elmer). Multispectral images were unmixed into their component spectra (PSMA probes, autofluorescence, and background) to quantitate the average fluorescence intensity associated with the tumors using regions of interest (ROIs) around the tumors.

[1] = test system: PSMA-negative PC3flu cells; test: In vitro cytotoxicity assay (CCK-8), PC3flu; assay type: cell-based, human; settings: 72 hours incubation, CCK-8
Procedure: (§1) Cells (1,000/well) were seeded in 96-well culture plates the day before treatment. Cells were incubated with various concentrations of drugs for 72 hours and cell viability evaluated by CCK-8 (Dojindo). The concentration required to reach 50% of cell proliferation was determined (IC50) by GraphPad Prism 3.0.

[2] = test system: PSMA-positive PC3pip cells; test: In vitro cytotoxicity assay (CCK-8), PC3pip; assay type: cell-based, human
Procedure: as §1

[3] = test system: PSMA receptor expressed on the PC3pip cells; test: In vitro cellular uptake studies, Example 1; assay type: cell-based, human; settings: 50 nM, 4 hours
Procedure: PC3pip and PC3flu cells were seeded in p-Slide 8-Well Chamber Slide (ibidi GmbH) at 2,000 cells/well. When cells grew to 70% confluency, PSMA-1-VcMMAE-Cy5.5 or PSMA-1-McMMAE-Cy5.5 conjugations were added at 50 nM and incubated at 37° C. for 4 hours. Cells were washed with PBS and stained with DAPI and LysoOrange (Abcam) for 30 minutes at 37° and 5% CO2, after which they were washed again with PBS and filled with fresh medium. Selectivity was determined by including 20-fold excess of the PSMA-1 ligand. The uptake and localization of the drug conjugates were visualized under a Leica HyVolution SP8 confocal microscope at 40×.

[4] = test system: α-tubulin in PC3pip and PC3flu cells; test: Immunofluorescence analysis of alpha-tubulin; assay type: cell-based, human; settings: 5 nM, 24 hours
Procedure: Cells on coverslips at about 70% confluency were incubated with 5 nM of MMAE, PSMA-1-VcMMAE-Cy5.5 or PSMA-1-McMMAE-Cy5.5 for 24 hours. Cells were washed and fixed with 4% paraformaldehyde for 10 minutes, permeabilized with 0.1% Triton™ X-100 for 10 minutes, and blocked with 1% BSA for 1 hour at room temperature. Alpha-tubulin (B5-1-2) Alexa Fluor 488 Mouse Monoclonal Antibody (Invitrogen) was then added at 2 μg/mL in 0.1% BSA and incubated for 3 hours at room temperature. Cells were counterstained with DAPI, mounted with Fluor-Mount aqueous mounting solution, and observed under Leica DM4000B fluorescence microscopy at 40×.

[5] = Stability of conjugates incubated with PBS, Example 1; assay type: physicochemical; settings: without enzyme
Procedure: To investigate if PSMA-targeted drug conjugates were cleavable by cathepsin B, the two conjugates were incubated with or without the enzyme and chromatographed by HPLC. When the conjugates were incubated with PBS, both PSMA-1-VcMMAE-Cy5.5 and PSMA-1-McMMAE-Cy5.5 were stable (FIG. 1D).

orthotopic PC3pip tumors = test: Orthotopic survival study; assay type: in vivo, mice; settings: every four days, 5 doses
Procedure: Surgical orthotopic tumor implantation was performed as previously reported. Tumor growth/size was monitored using Siemens Acuson S2000 ultrasound scanner. When the tumors were at the appropriate size (5 mm as measured by ultrasound, approximately 2 weeks) animals were given PSMA-1-VcMMAE, PSMA-1-VcMMAE-Cy5.5, or PBS every four days with a total of 5 doses. Tumors were monitored every other day by ultrasound. Each group had five mice.

heterotopic C4-2 tumors = test: Antitumor activity in heterotopic C4-2 tumors; assay type: in vivo, mice
Text: To show versatility of the antitumor activity of PSMA-1-VcMMAE-Cy5.5, we tested it in mice bearing heterotopic C4-2 tumors, which are androgen-independent prostate cancer cells endogenously expressing PSMA.

[6] = test system: heterotopic PC3pip tumors; test: Heterotopic survival study; assay type: in vivo, mice
Text: Male athymic nude mice were implanted subcutaneously with 1×10^6 of PC3pip cells under the right dorsum of the mice. When tumor size reached approximately 100 mm^3 (tumor volume=Length×width^2/2), mice received drugs through tail vein injection. […] Animals were weighed and tumor size measured every other day for 90 days. Cures were defined as no tumor present at end of the 90-day study. When tumors became too large or animals were moribund they were euthanized. Five mice were used in each group.

Row | SMILES | cleavage by cathepsin B (human liver cathepsin B) | time of peak uptake in PC3pip tumors (PC3pip and PC3flu tumors) | IC50 cytotoxicity, PC3flu cells [1] | IC50 cytotoxicity, PC3pip cells ([2]; 72 hours incubation, CCK-8) | cellular binding and uptake, competition with PSMA-1 ligand [3] | disruption of α-tubulin network [4] | stability when incubated with PBS [5] | cure at day 90 (orthotopic PC3pip tumors) | IC50 ([2]; 72 hours incubation, CCK-8) | effect of protease inhibitor E64 on cell killing ([2]; co-incubation with 50 μM E64) | cure rate (heterotopic C4-2 tumors) | cure rate (no tumors at end of 90-day study) ([6]; 160 nmol/kg i.v. every 4 days, 5 doses) | antitumor activity (tumor growth), words ([6]; 160 nmol/kg i.v. every four days, 5 doses) | tumor growth when given every 7 days ([6]; dosing every 7 days)
1 | CC[C@H](C)[C@@H]([C@@H](CC(=O)N1CCC[C@H]1[C@H](OC)[C@@H](C)C(=O)N[C@H](C)[C@@H](O)c1ccccc1)OC)N(C)C(=O)[C@@H](NC(=O)[C@H](C(C)C)N(C)C(=O)CCCCCN1C(=O)CC(SC[C@H](NC(=O)[C@H](CCC(=O)O)NC(=O)[C@H](CCC(=O)O)NC(=O)[C@H](CCC(=O)O)NC(=O)CCCCCNC(=O)[C@H]2CC[C@H](CNC(=O)CC[C@H](NC(=O)N[C@@H](CCC(=O)O)C(=O)O)C(=O)O)CC2)C(=O)NCCCCCC(=O)N[C@@H](CCCCNC(=O)CCCCC[N+]2=C(/C=C/C=C/C=C3/N(C)c4ccc5ccccc5c4C3(C)C)C(C)(C)c3c2ccc2ccccc32)C(N)=O)C1=O)C(C)C (stereo partly drawn) [PSMA-1-McMMAE-Cy5.5] | remained intact | 24 h | no IC50 values could be obtained | no IC50 values could be obtained | selective and specific for the PSMA receptor | no obvious disruption of tubulin | stable | – | – | – | – | – | – | –
2 | CC[C@H](C)[C@@H]([C@H](CC(=O)N1CCC[C@H]1[C@H](OC)[C@@H](C)C(=O)N[C@H](C)[C@@H](O)c1ccccc1)OC)N(C)C(=O)[C@@H](NC(=O)[C@H](C(C)C)N(C)C(=O)OCc1ccc(NC(=O)[C@H](CCCNC(N)=O)NC(=O)[C@@H](NC(=O)CCCCCN2C(=O)CC(SCC(NC(=O)C(CCC(=O)O)NC(=O)C(CCC(=O)O)NC(=O)C(CCC(=O)O)NC(=O)CCCCCNC(=O)C3CCC(CNC(=O)CCC(NC(=O)NC(CCC(=O)O)C(=O)O)C(=O)O)CC3)C(=O)NCCCCCC(=O)NC(CCCCNC(=O)CCCCC[N+]3=C(/C=C/C=C/C=C4/N(C)c5ccc6ccccc6c5C4(C)C)C(C)(C)c4c3ccc3ccccc43)C(N)=O)C2=O)C(C)C)cc1)C(C)C (stereo partly drawn) [PSMA-1-VcMMAE-Cy5.5] (I: {ξE-CO-ξγGlu}-[X3][Ahx][ξE][ξE][ξE][ξC][Ahx][ξK](X4)-NH2 / II: V[Cit][PABC][NMeV]V[X5][Dolaproine]-X1; linker I:6-II:N via Hexanoyl(6-succinimido-3yl)) | – | 24 h | – | – | selective and specific for the PSMA receptor | selective disruption of tubulin in PC3pip cells | stable | 40% | 0.84 nM and 0.75 nM | reduced the potency | 40% | 60% | effectively inhibited tumor growth | greatly inhibited tumor growth
